Reference: patent US7625696B2, “Screening method” (Takeda Pharmaceutical Company Limited, priority 2003, dated 2009)

Legend:
human GPR30 = target: T1, human GPR30 (Homo sapiens, UniProt Q99527, P21A/Q20H); assay: Intracellular calcium ion level-increasing activity using FLIPR, human GPR30 cells; type: cell-based; conditions: human GPR30-expressed CHO cells, Fluo 3-AM, up to 100 μM (FIGS. 1-3, 7)
T1 construct: expressed in transfected cells; host or cells: CHO/dhfr- cells (ATCC), clone #19
Excerpt: (§1) The cDNA (SEQ ID NO: 5) for human GPR30 was cloned by known PCR techniques to incorporate the cDNA into pAKKO1.11H expression vector (Biochemica et Biophysica Acta, 1219 (1994) 251-259). The structure of plasmid was verified by restriction enzyme digestion and sequencing analysis and a correctly constructed plasmid was used as CHO cell expression plasmid pAK-hGPR30.
This plasmid pAK-hGPR30 was transfected to CHO/dhfr− cells (American Type Culture Collection) by electroporation. First, plasmid pAK-hGPR30 was digested with restriction enzyme Ahd I. A cuvette for electroporation received 5×10^6 CHO/dhfr− cells suspended in 500 μl of PBS and 5 μg of plasmid DNA dissolved in 10 μl of TE buffer. The mixture was settled on ice for 5 minutes and subjected to electroporation under conditions of […] and 960 μF. After settling on ice for 5 minutes, the total volume of CHO/dhfr− cells were plated in a T75 flask and incubated in nucleic acid-containing MEMalpha medium (Invitrogen, Inc.) supplemented with 10% fetal bovine serum (BIO WHITTAKER, Inc.) at 37° C. in 5% carbon dioxide for one day. The cells were dispersed by trypsin treatment, recovered from the flask and plated in a 96-well plate by 200 counts or 500 counts per well. Incubation was initiated in nucleic acid-free MEMalpha medium (Invitrogen, Inc.) supplemented with 10% dialyzed fetal bovine serum (JRH BIOSCIENCES, Inc.) and 50 μg/ml gentamicin at 37° C. in 5% carbon dioxide. The plasmid-transfected transformants of CHO cells grew in the medium but the non-transfected cells gradually died. On Days 8 to 10 after the incubation, one colony that kept growing in one well of the 96-well plate were isolated and approximately 48 colonies of the transformants of CHO cells were selected. From each cell selected, RNA was recovered using a commercially available kit for RNA isolation. Subsequently, transformant CHO cell #19 clone highly expressing human GPR30 was selected by known TaqMan RT-PCR (hereinafter briefly referred to as human GPR30 cell). […]

rat GPR30 = target: T2, rat GPR30 (Rattus norvegicus, UniProt O08878, S320N); assay: Intracellular calcium ion level-increasing activity using FLIPR, rat GPR30 cells; type: cell-based; conditions: rat GPR30-expressed CHO cells, Fluo 3-AM, up to 100 μM (FIGS. 4-6, 8)
T2 construct: expressed in transfected cells; host or cells: CHO/dhfr- cells (ATCC), clone #6
T2 sequence (O08878 1-375 S320N): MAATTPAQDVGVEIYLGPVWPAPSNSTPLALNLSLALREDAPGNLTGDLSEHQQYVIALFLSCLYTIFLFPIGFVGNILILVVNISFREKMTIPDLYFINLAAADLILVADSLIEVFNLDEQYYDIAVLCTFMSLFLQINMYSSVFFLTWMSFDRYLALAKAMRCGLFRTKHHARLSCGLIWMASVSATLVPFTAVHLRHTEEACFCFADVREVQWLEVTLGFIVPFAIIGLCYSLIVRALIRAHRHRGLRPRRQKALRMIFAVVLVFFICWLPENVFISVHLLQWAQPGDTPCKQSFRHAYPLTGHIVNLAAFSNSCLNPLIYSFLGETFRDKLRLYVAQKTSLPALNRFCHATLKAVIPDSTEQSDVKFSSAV
Excerpt: as §1, with “6)” for “5)”, “rat” for “human”, “pAK-rGPR30.” for “pAK-hGPR30.”
In accordance with the procedures described in REFERENCE EXAMPLE 1, this plasmid pAK-rGPR30 was transfected to CHO/dhfr− cells (American Type Culture Collection) by electroporation and transformant CHO cell #6 clone highly expressing rat GPR30 was selected was selected (hereinafter briefly referred to as rat GPR30 cell).
(§2) The human GPR30 and rat GPR30 cells obtained in REFERENCE EXAMPLES above were suspended in medium (10% dFBS-DMEM) in 15×10^4 cells/ml, respectively. A 200 μl aliquot of the suspension was plated in each well of a 96-well plate (Black plate clear bottom, Coster, Inc.) for FLIPR, using an 8 channel pipette (3.0×10^4 cells/200 μl/well), and cultured at 37° C. overnight in a 5% CO2 incubator, which was provided for use (hereinafter referred to as the cell plate). Then, 20 ml of H/HBSS (9.8 g of Nissui HANKS 2 (Nissui Seiyaku Co., Ltd.), 0.35 g of sodium hydrogencarbonate, 4.77 g of HEPES; after adjusting the pH to 7.4 with 6 M sodium hydroxide solution, sterilization through a filter followed), 200 μl of 250 mM Probenecid and 200 μl of fetal bovine serum (FBS) were mixed. […]
(§3) All trans-retinol, all trans-retinal or 4-HPR (4-hydroxyphenylretinamide) was added to and diluted with 150 μl of H/HBSS containing 2.5 mM Probenecid and 0.1% CHAPS or H/HBSS containing 2.5 mM Probenecid, 0.1% CHAPS and 0.2% BSA; the dilution was transferred to a 96-well plate (V-Bottom Plate, Coster, Inc.) for FLIPR (hereinafter, the sample plate). […] Changes in fluorescence intensity were measured with passage of time to determine the intracellular calcium ion level-increasing activities.

GPR30 = assay: Intracellular calcium increase in GPR30-expressed CHO cells (summary statement); type: cell-based; conditions: stimulation with the compound
Experimental: as §2, §3

nuclear receptor PAR = conditions: J. Biol. Chem. 271 (37), 22441-22446, 1996; cited from earlier work
various cancer cells = conditions: J. Biol. Chem. 271 (37), 22441-22446, 1996; cited from earlier work

T1 sequence (Q99527 whole entry Q20H/P21A): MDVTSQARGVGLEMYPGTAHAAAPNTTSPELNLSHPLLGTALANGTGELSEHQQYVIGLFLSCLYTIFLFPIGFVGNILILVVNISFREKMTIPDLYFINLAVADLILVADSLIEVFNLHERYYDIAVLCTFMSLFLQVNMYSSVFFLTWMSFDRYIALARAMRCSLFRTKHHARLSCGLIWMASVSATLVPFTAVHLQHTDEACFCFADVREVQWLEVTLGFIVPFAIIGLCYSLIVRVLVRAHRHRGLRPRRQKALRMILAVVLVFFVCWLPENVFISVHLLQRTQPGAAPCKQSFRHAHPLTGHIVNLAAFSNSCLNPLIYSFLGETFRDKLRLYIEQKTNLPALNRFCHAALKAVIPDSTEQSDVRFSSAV

Compound: CC1=C(/C=C/C(C)=C/C=C/C(C)=C/C=O)C(C)(C)CCC1 [all trans-retinal]
- increase in the intracellular calcium ion concentration (change in fluorescence intensity) (human GPR30): induced an increase in the intracellular calcium ion concentration in a manner dependent on the concentration
- increase in the intracellular calcium ion concentration (change in fluorescence intensity) (rat GPR30): induced an increase in the intracellular calcium ion concentration in a manner dependent on the concentration

Compound: CC1=C(/C=C/C(C)=C/C=C/C(C)=C/CO)C(C)(C)CCC1 [all trans-retinol]
- increase in the intracellular calcium ion concentration (change in fluorescence intensity) (human GPR30): induced an increase in the intracellular calcium ion concentration in a manner dependent on the concentration
- increase in the intracellular calcium ion concentration (change in fluorescence intensity) (rat GPR30): induced an increase in the intracellular calcium ion concentration in a manner dependent on the concentration
- intracellular calcium in the GPR30-expressed CHO cells (GPR30): specifically increased

Compound: CC1=C(/C=C/C(C)=C/C=C/C(C)=C/C(=O)Nc2ccc(O)cc2)C(C)(C)CCC1 [4-HPR, 4-hydroxyphenylretinamide]
- increase in the intracellular calcium ion concentration (change in fluorescence intensity) (human GPR30): induced an increase in the intracellular calcium ion concentration in a manner dependent on the concentration
- increase in the intracellular calcium ion concentration (change in fluorescence intensity) (rat GPR30): induced an increase in the intracellular calcium ion concentration in a manner dependent on the concentration
- intracellular calcium in the GPR30-expressed CHO cells (GPR30): specifically increased
- agonist for nuclear receptor (nuclear receptor PAR): is an agonist for nuclear receptor PAR
- apoptosis of various cancer cells (various cancer cells): induces apoptosis of various cancer cells
